Test results as given in the NIST ThermoML archive (doi:10.1016/j.jct.2013.01.012).

Columns and labels:
[1] = refractive index (Na D-line) (dimensionless); mn = molality of the nth substance listed, in mol/kg; settings: 101 kPa, Liquid, Standard Abbe refractometry
[2] = mn = molality of the nth substance listed, in mol/kg; settings: 101 kPa, Liquid; for speed of sound: Sing-around technique in a fixed-path interferometer; for mass density: Vibrating tube method

O=P([O-])(O)O.[Li+] [lithium dihydrogen phosphate] + O
Settings	mass density, 298.15 K [kg/m3]	mass density, 303.15 K [kg/m3]	mass density, 308.15 K [kg/m3]	refractive index, 298.15 K	refractive index, 303.15 K	refractive index, 308.15 K	speed of sound, 298.15 K [m/s]	speed of sound, 303.15 K [m/s]	speed of sound, 308.15 K [m/s]
[1], m1 = 0.1	–	–	–	1.3342	1.3332	1.3327	–	–	–
[1], m1 = 0.3	–	–	–	1.3365	1.3363	1.3355	–	–	–
[1], m1 = 0.5	–	–	–	1.3394	1.339	1.3387	–	–	–
[1], m1 = 0.7	–	–	–	1.3421	1.3418	1.3414	–	–	–
[1], m1 = 0.9	–	–	–	1.3452	1.3448	1.3444	–	–	–
[2], m1 = 0.1	1004.55	1003.21	1001.59	–	–	–	1506.5	1518.5	1528.8
[2], m1 = 0.3	1018.97	1017.71	1016.05	–	–	–	1525.5	1536.8	1546.5
[2], m1 = 0.5	1033.8	1032.57	1031.29	–	–	–	1544.1	1555	1564.5
[2], m1 = 0.7	1048.96	1048.1	1046.58	–	–	–	1569.2	1573.7	1582.6
[2], m1 = 0.9	1064.91	1063.79	1055.48	–	–	–	1582.6	1593	1593.1

O=P(O)(O)O [phosphoric acid] + O
Settings	mass density, 298.15 K [kg/m3]	mass density, 303.15 K [kg/m3]	mass density, 308.15 K [kg/m3]	refractive index, 298.15 K	refractive index, 303.15 K	refractive index, 308.15 K	speed of sound, 298.15 K [m/s]	speed of sound, 303.15 K [m/s]	speed of sound, 308.15 K [m/s]
[1], m1 = 0.1	–	–	–	1.3334	1.3329	1.3323	–	–	–
[1], m1 = 0.3	–	–	–	1.335	1.3345	1.3339	–	–	–
[1], m1 = 0.5	–	–	–	1.3366	1.336	1.3356	–	–	–
[1], m1 = 0.7	–	–	–	1.3381	1.3376	1.3371	–	–	–
[1], m1 = 0.9	–	–	–	1.3397	1.3393	1.3388	–	–	–
[2], m1 = 0.1	1002.05	1000.62	998.962	–	–	–	1497.1	1509.2	1519.7
[2], m1 = 0.3	1011.37	1009.93	1008.27	–	–	–	1498.3	1510.2	1520.4
[2], m1 = 0.5	1021.09	1019.94	1018.07	–	–	–	1500	1511.6	1521.6
[2], m1 = 0.7	1030.49	1029.49	1028.12	–	–	–	1502	1513.2	1523
[2], m1 = 0.9	1040.62	1039.05	1037.8	–	–	–	1504.2	1515.1	1524.6

O=P([O-])([O-])[O-].[Na+].[Na+].[Na+] [trisodium phosphate] + O
Settings	mass density, 298.15 K [kg/m3]	mass density, 303.15 K [kg/m3]	mass density, 308.15 K [kg/m3]	refractive index, 298.15 K	refractive index, 303.15 K	refractive index, 308.15 K	speed of sound, 298.15 K [m/s]	speed of sound, 303.15 K [m/s]	speed of sound, 308.15 K [m/s]
[1], m1 = 0.1	–	–	–	1.3365	1.3358	1.3353	–	–	–
[1], m1 = 0.3	–	–	–	1.3439	1.3431	1.3425	–	–	–
[1], m1 = 0.5	–	–	–	1.3515	1.3506	1.35	–	–	–
[1], m1 = 0.7	–	–	–	1.3588	1.3581	1.3574	–	–	–
[1], m1 = 0.9	–	–	–	1.3664	1.3671	1.3653	–	–	–
[2], m1 = 0.1	1015.18	1013.87	1012.26	–	–	–	1519.7	1531.5	1541.8
[2], m1 = 0.3	1052.41	1051.09	1049.48	–	–	–	1563.1	1573.9	1583.5
[2], m1 = 0.5	1091.06	1090.82	1089.21	–	–	–	1608.9	1619.9	1628.3
[2], m1 = 0.7	1130.08	1129.51	1131.08	–	–	–	1658.1	1667.3	1677.7
[2], m1 = 0.9	1173.67	1169.99	1167.45	–	–	–	1716.9	1722.6	1727.6

O=P([O-])([O-])O.[Na+].[Na+] [disodium hydrogen phosphate] + O
Settings	mass density, 298.15 K [kg/m3]	mass density, 303.15 K [kg/m3]	mass density, 308.15 K [kg/m3]	refractive index, 298.15 K	refractive index, 303.15 K	refractive index, 308.15 K	speed of sound, 298.15 K [m/s]	speed of sound, 303.15 K [m/s]	speed of sound, 308.15 K [m/s]
[1], m1 = 0.1	–	–	–	1.3354	1.3347	1.3344	–	–	–
[1], m1 = 0.3	–	–	–	1.3408	1.3404	1.3398	–	–	–
[1], m1 = 0.5	–	–	–	1.3457	1.3456	1.3448	–	–	–
[1], m1 = 0.7	–	–	–	1.3512	1.3507	1.3499	–	–	–
[1], m1 = 0.9	–	–	–	1.3562	1.3557	1.3552	–	–	–
[2], m1 = 0.1	1010.86	1009.51	1008.19	–	–	–	1514.6	1526.5	1537
[2], m1 = 0.3	1038.69	1037	1035.61	–	–	–	1549.5	1560.1	1569.8
[2], m1 = 0.5	1066.76	1069.09	1051.41	–	–	–	1583.5	1598.6	1588.7
[2], m1 = 0.7	1096.95	1095.37	1099.82	–	–	–	1621.3	1630	1646.2
[2], m1 = 0.9	1129.62	1128.52	1162.21	–	–	–	1663.2	1672.3	1685.8
